From PubChem BioAssay AID179 (DTP/NCI, 2004)
“And” between values parts separate entries of the source, which are not always exact repeats. Equal values may be shown once. The source made the active and inactive calls.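 Rule for the calls: active = compounds giving half or more protection of infected cells from virus-caused growth loss, again on retest; inactive = the rest.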

Tested on: CEM cells HIV-1 protection, formazan growth assay
Assay: NCI AIDS Antiviral Assay
Settings: for IC50: measured here: growth of uninfected CEM cells
How it was run: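 Protection of CEM cells against HIV-1 measured as cell growth via soluble formazan read-out, with five concentrations tested on both infected and uninfected cells; failure to protect may reflect toxicity.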

SMILES	EC50 [µM]	IC50	outcome
Cc1c(Cl)cccc1NC(=O)CC1C(=O)Nc2ccccc2S1(=O)=O (stereo not given)	> 5.25	> 5.25 µM	
Cn1c(=S)[nH]n(CCOc2ccccc2)c1=S	> 200	> 200 µM	
Cn1c(N)c(N=Nc2ccc(S(=O)(=O)Nc3ccccn3)cc2)c(=O)n(C)c1=O			inactive
Cc1ccc2nc3n(c2c1)C(c1c(F)cccc1F)SC3 (stereo not given)	26.9	45.7 µM	
O=C1c2ccccc2C(=O)C1C(c1ccc([N+](=O)[O-])cc1)C1C(=O)c2ccccc2C1=O	> 4.47	> 4.47 µM	
CCOC(=O)CC(c1ccccc1)C(C)(C(=O)OCC)C(=O)OCC (stereo not given)			inactive
COC1CC(C)C(OC)C2=CC(=O)C=C(NC(=O)/C(C)=C/C=C\C(C)C(OC(N)=O)/C(C)=C\C(C)C1OC)C2=O (stereo not given)	> 2	0.204 µM	
CCOc1cc2cnc3c4cc(OC)c(OC)cc4ccc3c2cc1OC	> 70.8	34.7 µM	
COC(=O)/C(=N\NC(=O)C[N+](C)(C)C)C(C(=O)OC)C(=O)C(=O)Nc1ccccc1C(N)=O (stereo not given)	> 501	> 501 µM	
CCOC(=O)C1=CN/C(=C(/C)C(=O)OC)SC1C(=O)OCC (stereo not given)	> 200	37.2 µM	
O=C1Cc2nc(CO)c(CO)c(CO)c2CO1	> 1050	> 1050 µM	
CN1CC2=C(NCNS2(=O)=O)N(C)C1	> 148	> 148 µM	
CCOC(=O)NN(C(=O)OCC)C(=C(C1=CCCCC1)N1CCOCC1)N(NC(=O)OCC)C(=O)OCC	> 200	> 200 µM	
C=C(C)C1CC2=C(O1)C(=O)c1cccc(O)c1C2=O (stereo not given)	> 2	0.468 µM	
NC(C(=O)OC(=O)c1ccccc1)C(=O)OC(=O)c1ccccc1	> 200	97.7 µM	
COC/N=C(/N)NC#N	> 692	> 692 µM	
Cn1c(=O)c2ccc(-c3ccc(Br)cc3)nc2n(C)c1=O			inactive
COCC(=O)OC1CCn2c1nc1c2C(=O)C(C)=C(NC(C)=O)C1=O (stereo not given)	> 200	1.26 µM	
Cc1ccc2nc(NC(=O)C(=O)C(C(=O)c3ccc4ccccc4c3)C3OC(=O)c4ccccc43)sc2c1 (stereo not given)	> 50.1	25.7 µM	
Cc1c(NC(=O)C(C)(C)Br)c(=O)oc2c(C)c3occc(=O)c3cc12	> 16.6	> 16.6 µM	
COc1cc2oc(-c3ccc4c(c3)OCO4)c(OC)c(=O)c2c(OC)c1OC	155	> 200 µM	
COc1cc(OC)c(OC)cc1/C=N/N=C(\N)NO	> 200	> 200 µM	

SMILES	EC50 [µM]	IC50	outcome
C=CCCC(=O)C(Cc1ccccc1OC)C(=O)OC (stereo not given)	> 129	> 129 µM	
Cc1cccc(N=Nc2c(C)nn(C(=O)c3ccccc3Cl)c2C)c1			inactive
CCN(CC)CCO/N=C1\CC[C@H]2[C@@H]3CCc4cc(OC)ccc4[C@H]3CC[C@]12C	> 20	2.69 µM	
[O-][n+]1cc(SCc2ccccc2)ncc1SCc1ccccc1	> 200	> 200 µM	
COc1ccc2c(c1)OC[C@@H]1c3cc(OC)c(OCc4ccccc4)cc3O[C@H]21	6.61	> 100 µM	
N#Cc1c(N2CCOCC2)ncn(-c2ccc(Cl)cc2)c1=O	> 200	> 200 µM	
O=C(CC1=Nc2nnc(-c3nnc4n3C(=O)C(CC(=O)c3cccnc3)=N4)n2C1=O)c1cccnc1	> 15.1	> 15.1 µM	
Nc1nc2c(ncn2C2CCC(CO)OC2)c(=O)[nH]1 (stereo not given)	145	> 200 µM	
Nc1ncnc2c1ncn2CC1OCC(CO)O1 (stereo not given)	> 3090	2750 µM and 2340 µM	
COC(=O)[C@@H]1c2cc3c(c(O)c2[C@@H](OC2OC(C)C(OC)C(C)(OC)C2OC)C[C@]1(C)O)C(=O)c1c(O)cc2c(c1C3=O)O[C@H]1O[C@]2(C)[C@H](O)[C@@H](N(C)C)[C@@H]1O (stereo not given in full)			inactive
COC(=O)C(CCC#N)(CCC#N)C(=O)OC	> 21.9	> 21.9 µM	
N.N.N.N.[Co+3].[N-]=[N+]=[N-].[N-]=[N+]=[N-].[N-]=[N+]=[N-]			inactive
CC1(C)C2CCC1(C)[C@H](O)[C@H]2Nc1cc(C(F)(F)F)cc(C(F)(F)F)c1 (stereo not given in full)	> 20	0.513 µM	
Cc1cn(C2C=CC(CO)(C(F)(F)F)O2)c(=O)[nH]c1=O (stereo not given)	> 200	> 200 µM	
CC(C)CC1NC(=O)CCC(NC(=O)C(Cc2ccc(O)cc2)NC(=O)OCc2ccccc2)C(=O)NC(Cc2ccccc2)C(=O)NC(Cc2ccccc2)NC1=O (stereo not given)	> 200	> 200 µM	
Cc1cn(C2CC(N=[N+]=[N-])C(COC(=O)C3CNC(=O)N3)O2)c(=O)[nH]c1=O (stereo not given)		93.3 µM	active
O=C1CCCC[C@H]1[C@H]1CCC[C@@H]([C@H]2CCCCC2=O)C1=O	> 871	398 µM	
O=C1C(=Cc2ccccc2[N+](=O)[O-])N=C(c2ccccc2)N1n1c(-c2ccccc2)nc2ccccc2c1=O	> 200	29.5 µM	
Cc1cc(-c2cccc3ccccc23)c(C#N)c(=S)n1C1OC(CO)C(O)C(O)C1O (stereo not given)	> 200	66.1 µM	
COc1ccc(/C=C/C(=O)c2c(OC)cc(OC)c(OC)c2O)cc1			inactive
CCOC(=O)c1cn2c(n1)sc1cc(OC)ccc12	> 20	1.7 µM	
Cc1c(C)c2ccc3oc4ccccc4c3c2oc1=O	> 38	> 38 µM	

SMILES	EC50 [µM]	IC50	outcome
O=c1c2ccccc2nc(-c2cccc(Cl)c2)n1NC1OC(CO)C(O)C(O)C1O (stereo not given)			inactive
CCOC(=O)c1ccc(CSc2ccc(OC)cc2)c([N+](=O)[O-])c1	> 102	19.1 µM	
CC(C)(C)[Si](C)(C)OCCC1CC2(S(=O)(=O)C3=CC=C=C=C3)ON1CC2S(=O)(=O)c1ccccc1 (stereo not given)	> 35.5	> 35.5 µM	
CC(=O)Nc1ccc(NC(=O)c2cccc3c(Nc4ccc(S(=O)(=O)Nc5cc(C)on5)cc4)c4ccccc4nc23)cc1	> 200	23.4 µM	
CCCCC(C(=O)C(=O)Nc1ccccc1CC)C(=O)C(C)C (stereo not given)			inactive
CSC1=C(C(=O)Nc2ccccc2)C(N)=NC1=O	> 200	141 µM	
O=CC1=C(C(=O)OC(c2ccccc2)c2ccccc2)N2C(=O)[C@@H](NC(=O)Cc3cccs3)[C@H]2SC1	> 200	123 µM	
COc1cc2nncc(SCc3ccc(Cl)c(Cl)c3)c2cc1OC	> 39.8	4.57 µM	
O=c1[nH]c(=O)n(COCc2ccccc2)c2ccc(Br)cc12	> 200	> 200 µM	
O=C1CCCC1C(O)(C(F)(F)F)C(F)(F)F (stereo not given)	> 200	> 200 µM	
NC(CCC(=O)NCCCC(=O)O)C(=O)O (stereo not given)	> 85.1	> 85.1 µM	
CC1=C(C(=O)Nc2ccccc2C)C(c2ccc(Cl)c(Cl)c2)C(C(=O)Nc2ccccc2C)=C(C)N1			inactive
Cn1cc2ccccc2c1-c1nc(F)nc(Nc2ccc(N)cc2)n1	> 15.5	7.94 µM	
O=C1CS(=O)c2ccccc2N1 (stereo not given)	> 372	> 372 µM	
COC1(OC)C(N(C)C)=C(Cl)C(=O)/C1=C/C=O	> 251	72.4 µM	
C=CCn1c(=S)sc2c(C(=O)OCC)c3c(C)cc(C)cn3c2c1=O	> 3.89	> 3.89 µM	
CC(C)=CC(=O)N(C)C1C2CN3CCC(O2)C13 (stereo not given)			inactive
O=C1C=C2C(=CCOC2O)O1 (stereo not given)	> 16.2	0.191 µM	
N#C/C(=C\c1ccc(Br)cc1)C(=O)c1ccccc1	> 95.5	67.6 µM	
COC1CC2CCC(C)[C@](O)(O2)C(=O)C(=O)N2CCCCC2C(=O)OC(C(C)CC2CCC(O)C(OC)C2)CC(=O)C(C)C=C(C)C(OC(=O)CN(C)C)C(OC)C(=O)C(C)CC(C)/C=C/C=C/C=C\1C (stereo not given in full)	> 200	7.24 µM	
O=c1c(Cl)c(Cl)cnn1-c1ccc([N+](=O)[O-])cc1[N+](=O)[O-]	> 20.4	> 20.4 µM	
CC(C)(C)[Si](C)(C)OCC1OC(n2cc(I)c(=O)[nH]c2=O)C(O[Si](C)(C)C(C)(C)C)C1O[Si](C)(C)C(C)(C)C (stereo not given)	> 200	17.4 µM	

SMILES	EC50 [µM]	IC50	outcome
CCOC(=O)c1c(NC(=O)c2ccccc2)sc2c1CCC2	> 151	> 151 µM	
Cc1ccc(-c2nc3scc(C)n3n2)cc1	> 200	182 µM	
Cc1cc2c(=O)cc(-c3ccc(C(=O)O)cc3)oc2c(C(=O)O)c1C			inactive
C=CC1(C)CC(=O)C2(O)C(C)(O1)C(OC(C)=O)C(O)C1C(C)(C)CCC(O)C12C (stereo not given)			inactive
O=C1NC(=O)C(=O)C(c2nc3ccccc3s2)C1=O			inactive
CCCC(=O)OC1CN2CC[C@H](O)C2C(O)[C@@H]1O (stereo not given in full)	2.29	955 µM	
CC/C=C/C(=O)CC(O)(C(F)(F)F)C(F)(F)F	> 200	> 200 µM	
Cc1cc(C)nc(NS(=O)(=O)c2ccc(NC(=O)c3cccc4cc5ccccc5nc34)cc2)n1	> 91.2	3.8 µM	
CSc1nnc2nc[nH]n12	> 200	> 200 µM	
NC(=S)N/N=C1\CCCCc2ccccc21			inactive
CCc1c(Cc2cc(C)cc(C)c2)n(COCCC[Se]c2ccccc2)c(=O)[nH]c1=O	0.407	12 µM	
O=C(NNC1=NCCCN1)c1ccco1	> 200	> 200 µM	
CC(=O)N(C)n1cn[n+](CC(=O)OC(C)(C)C)c1	> 200	> 200 µM	
Cc1c2ccccc2nc(CS(=O)(=O)CCO)[n+]1[O-]	> 200	> 200 µM	
CCC[CH2][Sn]1([CH2]CCC)[O]N=Cc2ccccc2[O]1	> 14.1	0.437 µM	
Cc1cc2c(cc1C)NC1=C(N2)OC(c2ccccc2C)C1=O (stereo not given)	> 81.3	> 81.3 µM	
O=C1CC2COc3ccc(O)cc3C2=NN1c1ccccc1 (stereo not given)	> 324	110 µM	
OC(CC(O)(C(F)(F)F)C(F)(F)F)c1cccs1 (stereo not given)	> 200	93.3 µM	
CC(=O)NC1=CC(=O)C=C(Cl)C1=O	> 200	32.4 µM	
Cc1ccc(NC(=S)/N=C/C(C(=O)c2ccccc2)=C(\O)c2ccccc2)c(C)c1	> 200	31.6 µM	
C=CCNc1nc2c(s1)CCc1cc(OC)c(OC)cc1-2	> 24	> 24 µM	
O=c1[nH]nc(Nc2ccccc2)c2nnn(Cc3ccccc3)c12			inactive
